From patent US9828338B2, “Carbamate derivatives of lactam based N-acylethanolamine acid amidase (NAAA) inhibitors” (The Regents of the University of California, priority 2013, dated 2017) come the findings set out here.

The target of experiment [1] is T1, r-NAAA (Rattus norvegicus, UniProt Q5KTC7).
T1 construct: Lysosomal NAAA protein preparation was obtained by homogenizing male Sprague-Dawley rat lungs; tissue Charles River (animals); host or cells: male Sprague-Dawley rat lung, soluble lysosomal fraction
T1 sequence (Q5KTC7 34-362): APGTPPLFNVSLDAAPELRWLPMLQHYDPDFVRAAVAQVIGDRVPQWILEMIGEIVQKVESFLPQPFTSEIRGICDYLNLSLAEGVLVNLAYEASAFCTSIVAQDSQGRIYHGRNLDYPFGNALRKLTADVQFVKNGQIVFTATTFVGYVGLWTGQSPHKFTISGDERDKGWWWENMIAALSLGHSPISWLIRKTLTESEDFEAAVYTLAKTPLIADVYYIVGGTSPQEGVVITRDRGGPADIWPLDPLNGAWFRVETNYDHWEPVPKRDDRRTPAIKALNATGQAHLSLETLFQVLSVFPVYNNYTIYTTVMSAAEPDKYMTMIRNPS
Briefly: UPLC/MS r-NAAA assay. Type of experiment: biochemical.

Experiment [2] addresses T2, Rat AC (r-AC) (Rattus norvegicus, UniProt Q6P7S1).
T2 construct: V5 (C); His (C); made in house; host or cells: HEK293 cells transfected with pEF6-rAC-V5/His, G418 selected; soluble lysosomal fraction
T2 sequence (Q6P7S1 21-394): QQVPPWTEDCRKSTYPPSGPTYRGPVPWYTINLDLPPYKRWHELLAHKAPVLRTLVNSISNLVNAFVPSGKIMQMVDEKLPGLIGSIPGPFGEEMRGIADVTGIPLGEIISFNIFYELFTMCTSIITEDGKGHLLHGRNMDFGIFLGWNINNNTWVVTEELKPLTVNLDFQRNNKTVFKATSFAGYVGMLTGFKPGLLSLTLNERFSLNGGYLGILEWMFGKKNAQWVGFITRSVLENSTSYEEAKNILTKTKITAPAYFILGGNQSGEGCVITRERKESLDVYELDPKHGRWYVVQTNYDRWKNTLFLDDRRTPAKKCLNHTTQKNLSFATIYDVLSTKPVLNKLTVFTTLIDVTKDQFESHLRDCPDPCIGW
Briefly: Rat AC (r-AC) assay. The note with it: for IC50: read-out: r-AC UPLC/MS assay IC50. Type of experiment: biochemical. As to the method:
The selectivity of selected compounds versus Acid Ceramidase (AC) was determined.
Rat AC (r-AC) was cloned from a brain cDNA library using primers based on the sequence obtained from the National Center for Biotechnology Information (NCBI) database: 5′rAC (5′-[…]-3′) (SEQ ID NO:1) and 3′rAC (5′-[…]-3′) (SEQ ID NO:2). The PCR (High Fidelity PCR Master, Roche) product was subcloned into a pEF6-V5/His vector (Invitrogen) to construct a mammalian expression vector encoding V5/His-tagged rat AC. HEK293 cells were transfected with pEF6-rAC-V5/His using Super-Fect reagent (Qiagen) and screened with G418 (0.3 mg/mL). Cells were suspended in 20 mM Tris HCl (pH 7.5) containing 0.32M sucrose, sonicated and centrifuged at 800×g for 15 minutes at 4° C. The supernatants were centrifuged again at 12,000×g for 30 minutes at 4° C. The pellets were suspended in phosphate-buffered saline (PBS) and subjected to 2 freeze-thaw cycles at −80° C. The suspensions were centrifuged at 105,000×g for 1 hour at 4° C. The supernatants containing recombinant AC were kept at −80° C. until use. Protein concentration was measured using the bicinchoninic acid (BCA) assay (Pierce). Recombinant rat AC (50 μg) was preincubated with inhibitors (final DMSO concentration 1%) in assay buffer (100 mM sodium phosphate, 0.1% Nonidet P-40, 150 mM NaCl, 3 mM DTT, 100 mM sodium citrate, pH 4.5) for 30 minutes at 37° C. Reactions were started by the addition of 100 μM N-lauroyl ceramide (Nu-Chek Prep, Elysian, Minn.) and carried on for 30 minutes at 37° C. Reactions were stopped by addition of a mixture of chloroform/methanol (2:1, vol/vol) containing 1 nmol of heptadecanoic acid (HDA; NuChek Prep). The organic phases were collected, dried under N2, and analyzed by LC-MS in the negative-ion mode using […] (HDA) as internal standard (m/z=199 for lauric acid, m/z=269 for HDA). […]. The column temperature was 50° C. Electrospray ionization (ESI) was in the negative mode, capillary voltage as 4 kV, and fragmentor voltage was 100 V. N2 was used as drying gas at a flow rate of 13 L/min and a temperature of 350° C. Nebulizer pressure was set at 60 psi. We monitored [M-H]− in the selected-ion monitoring (SIM) mode using HDA as internal standard. Calibration curves were generated using commercial lauric acid (Nu-Chek Prep; m/z=199).

The target in experiment [3] is T3, human NAAA (Homo sapiens, UniProt Q02083).
T3 construct: made in house; host or cells: HEK293 cells, stably transfected; soluble lysosomal fraction used as enzyme source
T3 sequence (Q02083 29-359): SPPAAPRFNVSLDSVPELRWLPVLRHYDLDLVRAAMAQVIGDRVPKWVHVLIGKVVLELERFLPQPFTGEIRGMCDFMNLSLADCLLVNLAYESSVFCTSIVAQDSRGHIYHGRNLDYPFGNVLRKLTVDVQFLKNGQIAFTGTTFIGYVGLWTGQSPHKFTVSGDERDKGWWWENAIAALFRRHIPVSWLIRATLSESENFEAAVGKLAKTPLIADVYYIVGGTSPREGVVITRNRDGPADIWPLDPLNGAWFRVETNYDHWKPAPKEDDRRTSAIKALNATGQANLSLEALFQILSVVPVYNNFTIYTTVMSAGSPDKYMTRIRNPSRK
Description: Fluorogenic h-NAAA assay. Type of experiment: biochemical. Here is the method: Hek293 cells stably transfected with the human NAAA coding sequence cloned from a human spleen cDNA library were used as enzyme source. Recombinant HEK-hNAAA pellets were resuspended in homogenizing buffer, and sonicated. Samples were centrifuged at 800×g for 15 min at 4° C. and the resultant supernatants were then ultracentrifuged at 12,000×g for 30 min at 4° C. The pellets were resuspended in PBS pH 7.4 on ice and subjected to a freeze/thaw cycle at −80° C. The suspension was finally centrifuged at 105,000×g for 1 h at 4° C. Protein concentration was measured and samples aliquoted and stored at −80° C. until use.
The assay was run in Optiplate 96-wells black plates, in a total reaction volume of 200 μL. NAAA protein preparation (4.0 μg) was pre-incubated for 10 min with various concentrations of test compounds or vehicle control (5% DMSO) in 100 mM citrate/phosphate buffer (pH 4.5) containing 3.0 mM DTT, 0.1% Triton X-100, 0.05% BSA, 150 mM NaCl. N-(4-methyl-2-oxo-chromen-7-yl)-hexadecanamide was used as a substrate (5.0 μM) and the reaction carried over for 30 min at 37° C. The samples were then read in a Perkin Elmer Envision plate reader using an excitation wavelength of 360 nm and emission 460 nm. IC50 values were calculated by non-linear regression analysis of log [concentration]/inhibition curves using GraphPad Prism 5 (GraphPad Software Inc., CA—USA) applying a standard slope curve fitting.

In experiment [4] the test system is mice. Briefly: LPS-induced inflammation (lung). The note with it: for neutrophil migration/infiltration into lung tissue: 6 h and 24 h.
Description: Mice were anesthetized with ketamine and xylazine (100 and 10 mg/kg, respectively), and were subjected to intranasal instillation of LPS (1 μg/μL) or vehicle (saline 0.9%); the volume used was 1 μL/g body weight. In order to avoid drawing, the weight of each animal was divided by three; therefore each mouse received the respective volume of LPS or vehicle. Ex: animal 1 (24 g) received 3 times an intranasal instillation of 8 μL of LPS solution or vehicle.
The bronchoalveolar lavage and lung samples were collected 6 h or 24 h after the induction of inflammation.
Experiment [5] deals with mice. Briefly: Carrageenan-induced inflammation (paw edema, heat hyperalgesia). Type of experiment: in vivo. Conditions: compound 5 3-30 mg/kg p.o. In general terms: The carrageenan paw model is a standard test of acute inflammation.
The subject of experiment [6] is mice. Description: Carrageenan-induced lung inflammation. The note with it: carrageenan 2%. The class given is in vivo. As to the method: The chest was carefully opened and the pleural cavity was rinsed with 1 mL of saline solution containing heparin (5 U/mL). The exudate and washing solution were removed by aspiration and the total volume of the fluid was measured. Any exudate that was contaminated with blood was discarded. The amount of exudate was calculated by subtracting the volume of washing fluid injected from the total volume recovered.

Setting [7] is: @ 10 μM, read-out: r-AC UPLC/MS assay % inhib.
Setting [8] is: read-out: r-AC UPLC/MS assay % inhib.
Where [9] appears, read: compound 5 30 mg/kg p.o., dexamethasone 0.5 mg/kg i.p.

Entries after “also recorded” stand apart in the source; their conditions may differ. Read-outs that look alike come from different tables or passages of the source.

For `C[C@H]1NC(=O)[C@H]1NC(=O)OCCCCC1CCCCC1` [Example 76, 4-Cyclohexylbutyl-N-[(2R,3S)-2-methyl-4-oxo-azetidin-3-yl]-carbamate], the IC50 in experiment [1] was 87 µM. The inhibition at 10 µM in experiment [2] (setting [7]) was found to be 5%.
`O=C(N[C@H]1CNC1=O)OCc1ccc(-c2ccccc2)cc1` [Example 17, (4-Phenylphenyl)-methyl-N-[(3S)-2-oxoazetidin-3-yl]-carbamate]: the IC50 in experiment [1] turned out to be 0.31 µM; in experiment [2], 20.1 µM.
Take `CCCCCCCOC(=O)N[C@H]1CNC1=O` [Example 1, Heptyl-N-[(3S)-2-oxoazetidin-3-yl]-carbamate]: the IC50 in experiment [1] is 0.7 µM. In addition, the inhibition at 1 µM in experiment [2] (@ 1 μM, read-out: r-AC UPLC/MS assay % inhib.) came to 37%.
On to `C[C@@H]1NC(=O)[C@H]1NC(=O)OCc1ccc(-c2ccccc2)cc1` [Example 73, (4-Phenylphenyl)-methyl-N-[(2S,3S)-2-methyl-4-oxo-azetidin-3-yl]-carbamate], for which the IC50 in experiment [1] was found to be 0.9 µM. The inhibition at 10 µM in experiment [2] (setting [8]) worked out at 20%.
Take `C[C@@H]1NC(=O)[C@H]1NC(=O)OCc1ccc(C2CCCCC2)cc1` [Example 74, (4-Cyclohexylphenyl)-methyl-N-[(2S,3S)-2-methyl-4-oxo-azetidin-3-yl]-carbamate]: the IC50 came to 0.046 µM in experiment [1] and 0.107 µM in experiment [3]. Also, the inhibition at 10 µM in experiment [2] (setting [8]) is 20%.
`C[C@@H]1NC(=O)[C@H]1NC(=O)OCCCCC1CCCCC1` [Example 72, 4-Cyclohexylbutyl-N-[(2S,3S)-2-methyl-4-oxo-azetidin-3-yl]-carbamate] displayed an IC50 in experiment [1] of 0.05 µM. Further, the inhibition at 10 µM in experiment [2] (setting [7]) was determined as 20%.
`O=C(N[C@H]1CNC1=O)OCc1ccc(C2CCCCC2)cc1` [Example 31, (4-Cyclohexylphenyl)-methyl-N-[(3S)-2-oxoazetidin-3-yl]-carbamate]: the IC50 in experiment [1] turned out to be 0.028 µM; in experiment [2] it was 21.7 µM.
For the compound `O=C(N[C@H]1CNC1=O)OCCCCC1CCCCC1` [Example 5, 4-Cyclohexylbutyl-N-[(3S)-2-oxoazetidin-3-yl]-carbamate], the “LPS induced increase of IL-6, TNF-α and MIP-2/CXCL2 in tissue and BAL” value in experiment [4] (30 mg/kg po, at 6 hr) is given as “significantly reduced”. The “neutrophil migration/infiltration into lung tissue” value in experiment [4] (LPS, 30 mg/kg po, listed as Compound 5, 30 mg/kg) is listed as “prevented”. For the same compound, the “neutrophil migration/infiltration into lung tissue” value in experiment [4] (LPS, 30 mg/kg po, listed as compound 5, 30 mg/kg) was “prevents”. In experiment [4] (LPS, compound 5 30 mg/kg p.o., 30 min), the “production of cytokines/chemokines in BAL and lung tissue” value is reported as “prevents”. Also, in experiment [5], the heat hyperalgesia result was “reduced; also recorded: markedly attenuated” and the paw edema result is on record as “reduced; also recorded: markedly attenuated”. The IC50 in experiment [2] turned out to be 12.5 µM. In experiment [6] (setting [9]), the “TNF-alpha concentration in pulmonary exudate” value is “normalizes” and the “number of leukocytes (neutrophils) in the pulmonary exudate (FACS)” value is “normalized”. Also, in experiment [6] (compound 5 0.1-30 mg/kg p.o., dexamethasone 0.5 mg/kg i.p.), the “myeloperoxidase (MPO) activity in lung tissue” value is “normalizes; also recorded: dose-dependently normalized”. The “increase of TNF-α in the pulmonary exudate” value in experiment [6] (compound 5 0.1-30 mg/kg po) is reported as “dose-dependently normalized”.
